Measurements reported in paper PMC3527734, “Peripheral injections of melanin-concentrating hormone receptor 1 antagonist S38151 decrease food intake and body weight in rodent obesity models” (Frontiers in Endocrinology, 2012).
Where no end group is shown, it is not given here.

Key:
Zucker fa/fa rats [1] = settings: cyclophosphamide 100 mg/kg i.p., S38151 20 nmol/kg (28 μg/kg) i.c.v., n = 8
Method: These experiments were performed with modifications to previously described methods (Madden et al., [1999]). Rats were individually housed in wire-bottomed plastic cages with free access to both food pellets (6 mm diameter A03 UAR) and kaolin powder. The food pellets were presented in a small porcelain bowl on the floor of the cage. The kaolin powder was presented in a metal feeding dish attached to the inside of the cage. After a 2-week habituation period to these conditions, the animals were randomized into five treatment groups based on the quantity of food eaten during the stabilization period. In addition, those rats that consistently spilled the kaolin powder were eliminated from the study. One day after randomization, the animals were injected just before the beginning of the dark phase with either cyclophosphamide (100 mg/kg, i.p.), or S38151 [20 nmol/kg (28 μg/kg) i.c.v.] or vehicle [(artificial CSF) i.c.v.]. After injection, the quantity of kaolin and food ingested during the following 24-h period was determined. Food or kaolin spilled by the animals was collected at the end of the experiment, and total food and kaolin intake measurements were corrected for this loss.
Figure 5 The effects of S38151 on conditioned taste aversion and pica in Zucker fa/fa rats. (A) In the conditioned taste aversion test, after a period of habituation of the animals to the experimental protocol, Zucker fa/fa rats were presented with 0.2% saccharine for 20 min after drinking water was removed from their cages for 18 h (test day 0). Animals were then injected (i.p.) with vehicle or lithium chloride, or with S38151 (20 nmol/kg, i.c.v). On test days 4, 7, 11, and 14, rats were presented with 0.2% saccharine, and the quantity consumed during a 20-min period was determined. Results are expressed as mean ± SEM (n = 10–11 rats per group). […] (B) In the pica test, Zucker fa/fa rats were injected (i.c.v.) with 20 nmol/kg S38151, or an equivalent volume of artificial cerebrospinal fluid vehicle. Food and kaolin intake during the following 24-h period were each measured. Results are expressed as mean ± SEM (n = 8 rats per group).

Zucker fa/fa rats [2] = assay: conditioned taste aversion; assay type: in vivo, rat; settings: test days 4, 7, 11, 14 versus control; lithium chloride 75 mg/kg i.p.; S38151 20 nmol/kg i.c.v.; n = 10-11
C57BL/6J mice = assay: daily i.c.v. MCH, food intake and body weight in lean mice; assay type: in vivo, mouse; settings: n = 10
Method: (§1) For the MCH daily repeated i.c.v. injection studies, 13-week-old female C57BL/6J and ob/ob mice were used (Harlan, Gannat, France).
(§2) Figure 7 The effect of repeated daily central administration of MCH to lean (C57BL/6J) and obese (ob/ob) mice. C57BL/6J (A and B) and ob/ob (C and D) mice were administered MCH (5 μg/mouse/day) or artificial cerebrospinal fluid vehicle through i.c.v. injections for 5 consecutive days. Results are expressed as mean ± SEM (n = 10 mice per group). […] TEXT PRINTED IN THE PICTURE: (A) MCH: Food Intake/24h (g), C57BL/6J: Δ = 1.3 g | (B) MCH: Δ Body Weight (g), C57BL/6J: Δ = 1.3 g | (C) MCH: Food Intake/24h (g), ob/ob: Δ = 3.2 g | (D) MCH: Δ Body Weight (g), ob/ob: Δ = 2.1 g DOUBTS OF THE COPYIST ABOUT THIS PICTURE: The Δ values are printed beside the curve pairs with no substance label; I assigned them to MCH, reading them as the MCH versus Control difference.

ob/ob mice = assay: daily i.c.v. MCH, food intake and body weight in obese mice; assay type: in vivo; settings: MCH 5 μg/mouse/day i.c.v. for 5 days, n = 10
Method: as §1, §2

Wistar rats = assay: NEI-MCH-induced food intake after acute i.c.v. injection; assay type: in vivo, rat; settings: NEI-MCH alone or any combination of NEI-MCH and S38151, i.c.v.
Text: Wistar and Zucker fa/fa rats were anesthetized with Forène (Abbott Laboratories, Queenborough, UK), and a stainless steel guide cannula (Plastic Products Co, Roanoke, Va, USA) was stereotaxically implanted into the right lateral ventricle at the following coordinates relative to the bregma: AP −0.8 mm, L = −1.2 mm, and V = −3.5 mm. After a 7-day recovery period, during which the animals were handled each day to minimize non-specific stress, they were lightly anesthetized with Forène. Human/mouse/rat MCH (1 μg in a volume of 2.5 μ L, Bachem, Voisins-le-Bretonneux, France) or an equivalent volume of artificial cerebrospinal fluid (CSF) was then injected through the intraventricular cannula. Immediately after injection, the animals quickly recovered and were returned to their home cages. Only those animals responding within 2 h with a robust increase in food intake, indicating correct cannula placement, were used in the experiments described below. Two days after MCH injection, the rats were randomly assigned to different groups and studied in one of the following protocols.
Wistar rats were habituated for at least 2 weeks before experiment to a diet of food pellets (6 mm diameter) of the following composition: 67.5% food flour, 26.5% sucrose, 5% gum tragacanth, and 1.25% magnesium stearate (A03 UAR, Orge, France). The food pellets were present in a metal food hopper attached to the inside of each cage. At 09:00 on the day of study, the animals were lightly anesthetized with Forene® (Abbott, France). Thereafter, rats were injected intra-cerebroventricular (i.c.v.) with vehicle (artificial CSF) or with S38151 [0.5, 5, 10, 20, 30, or 50 nmol/kg ([…], 14, 28, 42, or 70 μg/kg, respectively)] in a volume of 2.5 μL, 20 min prior to the injection of human/rat NEI-MCH [5 nmol/kg (18.7 μg/kg) in a volume of 2.5 μL].
Food intake was measured at different times after peptide injection. Food spillage was carefully quantified during each time period, and intake measurements were corrected for this loss. At the end of the experiments, the animals were euthanized and the positions of the cannulae were assessed by the injection of 100 μ L Evans blue dye (2 mg/mL) followed by the visual examination of brain slices. Only data obtained from animals with correctly positioned cannulae were included in the final data analysis.
Figure 3 The effect of S38151 on NEI-MCH-induced food intake in Wistar rats after acute central administration. Satiated rats were injected (i.c.v.) at the beginning of the light phase with 5 μg NEI-MCH, 5 μg NEI-MCH + differing doses of S38151 (0.5–50 nmol/kg), or an equivalent volume of artificial cereblospinal fluid vehicle (5 μL). Cumulative food intake was measured at 1, 2, 4, 6, and 24 h post-injection.

## O=P1(N(CCCl)CCCl)NCCCO1 (centres unmarked) [Cyclophosphamide, cyclophosphamide, reference compound]
Zucker fa/fa rats [1]; vehicle 0.05 ± 0.01 g
  kaolin intake, 24 h, pica test: significant increase
Zucker fa/fa rats [1]; vehicle 27 ± 1 g
  food intake, 24 h, pica test: nearly complete suppression

## [Cl-].[Li+] [lithium chloride, reference compound]
Zucker fa/fa rats [2]
  0.2% saccharine consumption: significant reduction

## Melanin-concentrating hormone [MCH]
C57BL/6J mice; MCH 5 μg/mouse/day (100 nmol/kg/day) i.c.v. for 5 days
  Δ food intake vs. controls, day 5: +1.3 g
C57BL/6J mice; MCH 5 μg/mouse/day i.c.v. for 5 days
  Δ body weight vs. controls, day 5: +1.3 g
ob/ob mice
  Δ body weight vs. controls, after 5 days: +2.1 g
  Δ food intake vs. controls, day 5: +3.2 g

## NEI-MCH: stable precursor of melanin-concentrating hormone, human/rat NEI-MCH (EIGDEENSAKFPIGRRDFDMLRCMLGRVYRPCWQV; ends and bridges not checked; cysteine pairing not given here; UniProt P20382 131-165, looked up, fragment) [reference compound]
Wistar rats
  food intake during the entire 24-h period versus control group: not significantly altered
